Laboratory results published in article PMC8159961, “Exploring protein hotspots by optimized fragment pharmacophores” (Nature Communications, 2021).
pIC50, pKi: −log10 of the molar value. “And” between values parts separate entries of the source, which are not always exact repeats. Equal values may be shown once. “Also recorded” adds a separate entry of the source. Read-outs that look alike come from different tables or passages of the source.

Columns and labels:
[1] = target: T1, SARS-CoV-2 NSP3 macrodomain (Severe acute respiratory syndrome coronavirus 2, UniProt P0DTD1); experiment: X-ray fragment screening (XChem, crystal soaking); type: binding
human 5-HT6 receptor = target: T2, human 5-HT6 receptor (Homo sapiens, UniProt P50406); experiment: GPCR radioligand binding assay, [3H]-LSD displacement, HEK293 membranes
T2 construct: expressed in transfected cells

[2] = target: T1, SARS-CoV-2 NSP3 macrodomain; experiment: NSP3 macrodomain HTRF assay, displacement of ADP-ribose-conjugated biotin peptide; type: binding
human thrombin = target: T3, human thrombin (Homo sapiens, UniProt P00734); experiment: Protease inhibitory assay, chromogenic substrate S-2238; type: biochemical
T3 construct: human thrombin; purchased Sigma-Aldrich

human 5-HT1A receptor = target: T4, human 5-HT1A receptor (Homo sapiens, UniProt P08908); experiment: GPCR radioligand binding assay, [3H]-8-OH-DPAT displacement, HEK293 membranes
T4 construct: expressed in transfected cells
T4 sequence (P08908 1-422): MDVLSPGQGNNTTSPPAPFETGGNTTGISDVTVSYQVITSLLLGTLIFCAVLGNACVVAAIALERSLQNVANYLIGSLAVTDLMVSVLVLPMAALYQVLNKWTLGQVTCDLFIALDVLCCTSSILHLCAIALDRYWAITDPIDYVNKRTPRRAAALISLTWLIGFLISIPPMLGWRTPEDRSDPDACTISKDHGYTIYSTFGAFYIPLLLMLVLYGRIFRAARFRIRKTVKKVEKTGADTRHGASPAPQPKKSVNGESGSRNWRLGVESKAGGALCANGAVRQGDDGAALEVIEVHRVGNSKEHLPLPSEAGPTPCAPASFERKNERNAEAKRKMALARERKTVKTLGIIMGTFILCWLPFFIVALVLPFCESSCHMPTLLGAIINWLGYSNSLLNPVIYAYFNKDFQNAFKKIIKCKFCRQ

human 5-HT7b receptor = target: T5, human 5-HT7b receptor (Homo sapiens, UniProt P34969); experiment: GPCR radioligand binding assay, [3H]-5-CT displacement, HEK293 membranes
T5 construct: expressed in transfected cells

bovine factor Xa = target: T6, bovine factor Xa (Bos taurus, UniProt P00743); experiment: Protease inhibitory assay, chromogenic substrate S-2222; type: biochemical; conditions: 1 = hit, 0 = no hit; screening at 200 µM
T6 construct: bovine factor Xa, Chromogenix, 2 nkat/mL; purchased Chromogenix

recombinant SETD2 = target: T7, recombinant SETD2 (Homo sapiens, UniProt Q9BYW2); experiment: SETD2 Chemiluminescence assay (H3K36 tri-methylation); type: biochemical; conditions: 1 = hit, 0 = no hit
T7 construct: purchased BPS Bioscience 52060
T7 sequence (Q9BYW2 1418-1714 limits assumed): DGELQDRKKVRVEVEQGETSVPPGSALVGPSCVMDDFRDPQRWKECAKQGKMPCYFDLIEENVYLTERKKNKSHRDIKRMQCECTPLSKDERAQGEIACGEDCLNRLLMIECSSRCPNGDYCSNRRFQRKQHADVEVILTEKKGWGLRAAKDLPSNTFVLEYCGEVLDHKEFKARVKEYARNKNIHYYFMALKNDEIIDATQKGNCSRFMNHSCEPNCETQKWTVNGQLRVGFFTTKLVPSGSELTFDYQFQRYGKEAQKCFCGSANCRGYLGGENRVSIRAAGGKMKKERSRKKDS

SARS-CoV-2 = experiment: microbe, parasite or virus in culture; type: cell-based; conditions: for antiviral activity in the cellular assay (in words): infected Vero E6 cells
[3] = 10 µM, read-out: 5-HT6 % Inhibition by plate position
[4] = 1 = hit, 0 = no hit, tested at 10 µM, hit = 50% or stronger inhibition
[5] = 5-HT6, average of exp_1 and exp_2, read-out: %inh 5-HT6 average
[6] = 5-HT6, average, values below 0 and above 100% were set as 0 and 100, read-out: %inh 5-HT6 corrected*
[7] = 5-HT6, replicate exp_1, read-out: %inh 5-HT6 exp_1
[8] = 5-HT6, replicate exp_2, read-out: %inh 5-HT6 exp_2
[9] = 10 µM, read-out: 5-HT1A % Inhibition by plate position
[10] = 5-HT1A, average of exp_1 and exp_2, read-out: %inh 5-HT1A average
[11] = 5-HT1A, average, values below 0 and above 100% were set as 0 and 100, read-out: %inh 5-HT1A corrected*
[12] = 5-HT1A, replicate exp_1, read-out: %inh 5-HT1A exp_1
[13] = 5-HT1A, replicate exp_2, read-out: %inh 5-HT1A exp_2
[14] = 10 µM, read-out: 5-HT7 % Inhibition by plate position
[15] = 5-HT7, average of exp_1 and exp_2, read-out: %inh 5-HT7 average
[16] = 5-HT7, average, values below 0 and above 100% were set as 0 and 100, read-out: %inh 5-HT7 corrected*
[17] = 5-HT7, replicate exp_1, read-out: %inh 5-HT7 exp_1
[18] = 5-HT7, replicate exp_2, read-out: %inh 5-HT7 exp_2

T2 sequence (P50406 whole entry): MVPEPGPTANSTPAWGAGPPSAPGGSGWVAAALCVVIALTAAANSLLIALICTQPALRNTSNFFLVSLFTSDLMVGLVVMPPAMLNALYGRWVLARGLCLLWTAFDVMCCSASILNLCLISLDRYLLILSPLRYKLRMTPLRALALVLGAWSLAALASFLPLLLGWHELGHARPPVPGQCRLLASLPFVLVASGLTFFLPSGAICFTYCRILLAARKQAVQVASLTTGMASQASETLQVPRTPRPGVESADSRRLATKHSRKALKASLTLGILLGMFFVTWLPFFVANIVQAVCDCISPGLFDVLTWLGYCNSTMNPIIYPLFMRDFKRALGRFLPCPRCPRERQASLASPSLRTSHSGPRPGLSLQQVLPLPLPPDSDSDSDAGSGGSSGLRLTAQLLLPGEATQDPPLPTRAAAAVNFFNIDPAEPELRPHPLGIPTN
T5 sequence (P34969 1-432): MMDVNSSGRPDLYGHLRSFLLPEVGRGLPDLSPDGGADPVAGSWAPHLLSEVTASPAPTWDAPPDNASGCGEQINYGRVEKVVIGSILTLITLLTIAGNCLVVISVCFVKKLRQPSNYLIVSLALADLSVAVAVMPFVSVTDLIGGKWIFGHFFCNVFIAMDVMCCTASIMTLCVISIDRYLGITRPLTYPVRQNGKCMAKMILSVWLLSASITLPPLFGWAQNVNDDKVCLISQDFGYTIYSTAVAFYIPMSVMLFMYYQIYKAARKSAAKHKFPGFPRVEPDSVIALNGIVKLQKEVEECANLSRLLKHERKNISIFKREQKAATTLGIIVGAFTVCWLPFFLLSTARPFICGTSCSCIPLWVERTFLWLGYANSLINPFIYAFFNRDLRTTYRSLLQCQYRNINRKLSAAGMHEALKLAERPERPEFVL
T6 sequence (P00743 234-492 limits assumed): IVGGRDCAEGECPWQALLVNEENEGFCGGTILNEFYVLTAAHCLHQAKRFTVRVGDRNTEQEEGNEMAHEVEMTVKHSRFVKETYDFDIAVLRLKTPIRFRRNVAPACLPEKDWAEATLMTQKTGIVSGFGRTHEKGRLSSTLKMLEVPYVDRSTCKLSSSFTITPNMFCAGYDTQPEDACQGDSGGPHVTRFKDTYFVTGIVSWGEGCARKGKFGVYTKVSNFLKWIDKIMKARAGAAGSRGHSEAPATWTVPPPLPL
T6 sequence (P00743 41-180 partner limits assumed): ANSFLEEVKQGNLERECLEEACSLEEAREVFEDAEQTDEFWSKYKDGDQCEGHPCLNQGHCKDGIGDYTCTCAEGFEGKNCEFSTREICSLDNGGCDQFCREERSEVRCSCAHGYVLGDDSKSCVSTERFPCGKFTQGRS

What does the source list for `c1cnc2ncccc2c1` [SX003]?
X-ray screen result, binding site [1]: identified in the active site; inhibition at 10 µM (human 5-HT6 receptor; [3]): 48%; experimental hit status, 5-HT6 (human 5-HT6 receptor; [4]): 0; inhibition at 10 µM (human 5-HT6 receptor; [5]): 48%; inhibition at 10 µM (human 5-HT6 receptor; [6]): 48%; inhibition at 10 µM (human 5-HT6 receptor; [7]): 55%; inhibition at 10 µM (human 5-HT6 receptor; [8]): 41%; activity in the NSP3 enzyme assay (in words) ([2]; HTRF assay, up to 5 mM concentration): no activity; experimental hit status, Thrombin (human thrombin; 1 = hit, 0 = no hit, screening at 200 µM): 0; inhibition at 10 µM (human 5-HT1A receptor; [9]): 22%; experimental hit status, 5-HT1 (human 5-HT1A receptor; [4]): 0; inhibition at 10 µM (human 5-HT1A receptor; [10]): 22%; inhibition at 10 µM (human 5-HT1A receptor; [11]): 22%; inhibition at 10 µM (human 5-HT1A receptor; [12]): 24%; inhibition at 10 µM (human 5-HT1A receptor; [13]): 21%; inhibition at 10 µM (human 5-HT7b receptor; [14]): 34%; experimental hit status, 5-HT7 (human 5-HT7b receptor; [4]): 0; inhibition at 10 µM (human 5-HT7b receptor; [15]): 34%; inhibition at 10 µM (human 5-HT7b receptor; [16]): 34%; inhibition at 10 µM (human 5-HT7b receptor; [17]): 32%; inhibition at 10 µM (human 5-HT7b receptor; [18]): 36%; experimental hit status, Factor Xa (bovine factor Xa): 0; experimental hit status, SETD2 (recombinant SETD2): 0; antiviral activity in the cellular assay (in words) (SARS-CoV-2): inactive in cells

For `NC(=O)N1CCC(C(=O)O)CC1` [SX048], which “X-ray screen result, binding site” value [1] is on record?
The value was “identified in the active site”.

And the inhibition at 10 µM (human 5-HT6 receptor; [3])?
Its inhibition at 10 µM is 47%.

What about the inhibition at 10 µM (human 5-HT6 receptor; [5]) of the same molecule?
The inhibition at 10 µM was 47%.

And the inhibition at 10 µM (human 5-HT6 receptor; [6])?
Its inhibition at 10 µM is 47%.

What about the inhibition at 10 µM (human 5-HT6 receptor; [7]) of the same molecule?
Its inhibition at 10 µM is 56%.

And the inhibition at 10 µM (human 5-HT6 receptor; [8])?
The inhibition at 10 µM was 38%.

What about the “% SARS-CoV-2 macrodomain inhibition” value ([2]; 98 µM, replicates) of the same molecule?
The value was 4.2%.

And the inhibition at 98 µM ([2]; 98 µM, replicates)?
Its inhibition at 98 µM is 5.1%.

What about the “% SARS-CoV-2 macrodomain inhibition” value ([2]; 195 µM, replicates) of the same molecule?
The value was 3.7% and 10.3%.

What about the “% SARS-CoV-2 macrodomain inhibition” value ([2]; 391 µM, replicates) of the same molecule?
Its value is 5.0% and 0.65%.

What about the “% SARS-CoV-2 macrodomain inhibition” value ([2]; 781 µM, replicates) of the same molecule?
The value was 4.2% and 0.6%.

And the “% SARS-CoV-2 macrodomain inhibition” value ([2]; 1563 µM, replicates)?
The value was 5.8%.

What about the inhibition at 1563 µM ([2]; 1563 µM, replicates) of the same molecule?
Its inhibition at 1563 µM is 6.6%.

And the “% SARS-CoV-2 macrodomain inhibition” value ([2]; 3125 µM, replicates)?
Its value is 6.5% and 15.4%.

And the “% SARS-CoV-2 macrodomain inhibition” value ([2]; 6250 µM, replicates)?
The value was 80.4%.

What about the inhibition at 6250 µM ([2]; 6250 µM, replicates) of the same molecule?
The inhibition at 6250 µM was 84.7%.

And the “% SARS-CoV-2 macrodomain inhibition” value ([2]; 12500 µM, replicates)?
Its value is 102.4%.

And the inhibition at 12500 µM ([2]; 12500 µM, replicates)?
The inhibition at 12500 µM was 102%.

What about the “NSP3 inhibition (in words)” value ([2]; HTRF assay, at 5 mM concentration) of the same molecule?
Its value is “significant”.

And the pIC50 ([2]; IC50, SARS-CoV-2 macrodomain inhibition)?
The pIC50 was 2.26.

And the pIC50 ([2]; NSP3 IC50, HTRF assay)?
Its pIC50 is 2.26.

What about the pKi (human thrombin; plate layout, label = plate position, Cheng-Prusoff, Km 2.6 µM, read-out: Thrombin Ki) of the same molecule?
The pKi was 3.52.

And the inhibition at 10 µM (human 5-HT1A receptor; [9])?
The inhibition at 10 µM was 0.751%.

And the inhibition at 10 µM (human 5-HT1A receptor; [10])?
The inhibition at 10 µM was 0.751%.

And the inhibition at 10 µM (human 5-HT1A receptor; [11])?
Its inhibition at 10 µM is 0.751%.

And the inhibition at 10 µM (human 5-HT1A receptor; [12])?
The inhibition at 10 µM was 1.5%.

And the inhibition at 10 µM (human 5-HT1A receptor; [13])?
Its inhibition at 10 µM is 0%.

What about the inhibition at 10 µM (human 5-HT7b receptor; [14]) of the same molecule?
Its inhibition at 10 µM is 0%.

What about the inhibition at 10 µM (human 5-HT7b receptor; [15]) of the same molecule?
The inhibition at 10 µM was -6.41%.

And the inhibition at 10 µM (human 5-HT7b receptor; [16])?
The inhibition at 10 µM was 0%.

What about the inhibition at 10 µM (human 5-HT7b receptor; [17]) of the same molecule?
Its inhibition at 10 µM is -8%.

What about the inhibition at 10 µM (human 5-HT7b receptor; [18]) of the same molecule?
Its inhibition at 10 µM is -4.44%.

What about the “viral copy numbers normalized to the control (untreated infected cells)” value (from here on “viral copy numbers normalized”) (SARS-CoV-2; 10 uM, replicates) of the same molecule?
The value was 1.6898 and 2.197 and 1.352.

What about the “Inhibition (%) of viral copy numbers” value (SARS-CoV-2; 100 uM, replicates) of the same molecule?
Its value is 8.992%.

What about the “viral copy numbers normalized” value (SARS-CoV-2; 100 uM, replicates) of the same molecule?
The value was 1.075 and 1.992 and 0.9101.

And the “Inhibition (%) of viral copy numbers” value (SARS-CoV-2; 250 uM, replicates)?
Its value is 15.88% and 50.18% and 14.44%.

What about the “viral copy numbers normalized” value (SARS-CoV-2; 250 uM, replicates) of the same molecule?
The value was 0.8412 and 0.4982 and 0.8556.

What about the “Inhibition (%) of viral copy numbers” value (SARS-CoV-2; 500 uM, replicates) of the same molecule?
Its value is 81.12% and 43.68% and 14.44%.

And the “viral copy numbers normalized” value (SARS-CoV-2; 500 uM, replicates)?
Its value is 0.1888 and 0.5632 and 0.8556.

What about the “Inhibition (%) of viral copy numbers” value (SARS-CoV-2; 750 uM, replicates) of the same molecule?
Its value is 51.99% and 82.49% and 35.02%.

What about the “viral copy numbers normalized” value (SARS-CoV-2; 750 uM, replicates) of the same molecule?
The value was 0.4801 and 0.1751 and 0.6498.

What about the “Inhibition (%) of viral copy numbers” value (SARS-CoV-2; 1000 uM, replicates) of the same molecule?
Its value is 41.84% and 41.07%.

What about the “viral copy numbers normalized” value (SARS-CoV-2; 1000 uM, replicates) of the same molecule?
Its value is 0.5067 and 0.5816 and 0.5893.

And the inhibition at 10 µM (SARS-CoV-2; Severe acute respiratory syndrome coronavirus 2, Vero C1008, 10 uM, replicates, read-out: Inhibition (%) of viral copy numbers)?
Its inhibition at 10 µM is 0%.

And the inhibition at 1000 µM (SARS-CoV-2; Severe acute respiratory syndrome coronavirus 2, Vero C1008, 1000 uM, replicates, read-out: Inhibition (%) of viral copy numbers)?
Its inhibition at 1000 µM is 49.3%.

And the “antiviral activity in the cellular assay (in words)” value (SARS-CoV-2)?
Its value is “high micromolar range; also recorded: Significant antiviral activities”.
